Data on one compound can be found in article PMC3885398, “Evaluation of the Antitumor Effects of BPR1J-340, a Potent and Selective FLT3 Inhibitor, Alone or in Combination with an HDAC Inhibitor, Vorinostat, in AML Cancer” (PLoS ONE, 2014).

Entries after “also recorded” stand apart in the source; their conditions may differ.

The test system of data set [1] is MOLM-13 tumor xenograft. Nature of the data set: Subcutaneous MOLM-13 tumor xenograft in nude mice. It is filed as in vivo. As for the experimental part: Male nude mice (Nu-Fox1nu) of eight weeks old were purchased from BioLasco (Ilan, Taiwan). The nude mice (n = 5∼7 per group) were inoculated subcutaneously with MOLM-13 (1×10^6 cells/flank). All human cancer cells were determined to be free of Mycoplasma spp before the inoculation. When tumors size reached 100∼200 mm^3 and a large size of >500 mm^3, the animals were grouped and treated with the BPR1J-340 (5 and 20 mg/kg, i.v.) or vehicle as control once daily for 5 days per week for two or three weeks. Tumor sizes were measured and calculated with the formula of length×width^2/2 after the initiation of the treatments. Tumor size and animal body weight were measured twice a week after the tumor cell inoculation. At the end of the study, animals were euthanized by carbon dioxide inhalation followed by cervical dislocation. The significant difference between the treated and vehicle control were analyzed by using one-way ANOVA and Student-Newman-Keuls test. The level of a statistical significance was set at p<0.05.

The target of data set [2] is T1, FLT3 (wild-type, residues Y567-S993) (Homo sapiens, UniProt P36888).
T1 construct: FLT3 (residues Y567-S993); made in house
T1 sequence (P36888 567-993): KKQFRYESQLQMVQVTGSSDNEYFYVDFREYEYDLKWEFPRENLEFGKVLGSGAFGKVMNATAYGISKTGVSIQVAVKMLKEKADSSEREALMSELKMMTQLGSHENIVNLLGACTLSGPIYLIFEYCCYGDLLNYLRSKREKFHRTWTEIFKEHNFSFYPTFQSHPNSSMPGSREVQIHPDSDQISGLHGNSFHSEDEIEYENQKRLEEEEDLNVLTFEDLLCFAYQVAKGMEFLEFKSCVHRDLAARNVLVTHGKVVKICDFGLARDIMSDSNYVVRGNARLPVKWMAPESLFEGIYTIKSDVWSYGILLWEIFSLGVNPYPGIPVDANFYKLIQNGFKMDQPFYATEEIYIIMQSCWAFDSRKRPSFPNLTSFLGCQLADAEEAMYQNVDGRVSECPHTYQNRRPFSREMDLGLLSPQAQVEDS
Nature of the data set: FLT3 Kinase-Glo kinase assay. In kind it is biochemical. (In general: In Kinase-Glo more light means more ATP remaining.)
Procedure: All inhibitors were dissolved in dimethylsulfoxide (DMSO) at a stock concentration of 10 mM. […] The preparation of recombinant proteins, FLT3 (residues Y567-S993), VEGFR1 (residues R781-I1338) and VEGFR2 (residues V789-V1356), for biochemical kinase assay was described previously [29].
The FLT3 and VEGFR1/2 Kinase-Glo kinase assays were performed as reported by our earlier study [30].

In data set [3] the test system is STAT5 phosphorylation. Nature of the data set: STAT5 phosphorylation in MV4;11 cells, Western blot. In kind it is cell-based. As to conditions: Homo sapiens, 1 hour. As for the experimental part: Cells were lysed in lysis buffer (50 mM Tris, pH 8.0, 150 mM NaCl, 1% Triton X-100, 0.5% sodium deoxycholate, 0.1% SDS, 1 mM sodium orthovanadate, 1 mM PMSF, and 1 mM DTT). Protein lysates were resolved by SDS-PAGE and transferred onto a polyvinylidene difluoride (PVDF) membrane (Millipore, Bedford, MA, USA). The membranes were immunoblotted with appropriate antibodies and detected using the SuperSignal reagent (Pierce, Rockford, IL, USA) followed by exposure to X-ray film.
To address whether BPR1J-340 was able to inhibit the FLT3 signaling pathway in FLT3-driven cells, MV4;11 cells were treated with different concentrations of BPR1J-340 for 1 hour, and the phosphorylation status of FLT3 and STAT5 (Signal Transducer and Activator of Transcription 5), a critical down-stream modulator that plays a major role in FLT3-ITD signal transduction for cell expansion and survival, was examined by Western blot analysis. […] To investigate the difference in sensitivity between FLT3-WT and the activating mutants FLT3-ITD and FLT3-D835Y to BPR1J-340, HEK293T cells engineered to express FLT3-WT or mutants FLT3 (FLT3-ITD, FLT3-D835Y) were analyzed. […]
Figure 2 BPR1J-340 inhibits FLT3-dependent signaling. […] The phosphorylation status of FLT3 and STAT5 were evaluated by Western blot analysis. […] The FLT3 phosphorylation status in the transfected cells was evaluated by Western blot analysis.
A general note: Immunoblotting shows a protein as a band on a membrane.

For `CCc1cc(NC(=O)NCc2ccc(-c3cc(NC(=O)c4ccc(CN5CCN(C)CC5)cc4)[nH]n3)cc2)no1` [BPR1J-340, N1-(3-4-[([(5-ethyl-3-isoxazolyl)amino]carbonylamino)methyl]phenyl-1H-5-pyrazolyl)-4-[(4-methylpiperazino)methyl]benzamide], the CR ratio in data set [1] (5 mg/kg) worked out at 67%. Moreover, the tumor response entry in data set [1] (5 mg/kg i.v. qd, days 1–5 of each week for 3 weeks, tumors about 200 mm^3) is given as “complete regression of the tumor in all animals by day 22; also recorded: inhibited”. In data set [1] (5 mg/kg i.v. qd, days 1–5 weekly for 3 weeks, within 31 days of post-treatment observation), the “complete regression (CR), animals” value is 4 of 6. In addition, the “tumor response, large tumors” value in data set [1] (20 mg/kg i.v., days 1–5 of each week for 2 weeks, average tumor volume 630 mm^3, 48-day follow up) was “complete and durable tumor regression; also recorded: significantly reversed”. Further, the “body weight, mortality, tolerability” value in data set [1] (nude mice, 5 and 20 mg/kg/day i.v.) is “well-tolerated”. Further, the IC50 in data set [2] is 29 ± 5 nM; in data set [3] it was approximately 1 nM.

As usually defined, the IC50 is the concentration needed to halve the response being measured. Lower therefore signals greater potency.
